According to patent publication US20070117743A1, “New antitumoral compounds” (priority 2003, published 2007):
Like-named read-outs stand apart in the source and are kept apart here. Where a SMILES comes first, the peptide text is derived from it. Bridges are numbered along the chain shown (N, C = ends). [ ]: non-standard residue; d: D form. The star is where a group is joined. d(aIle) = CC[C@H](C)[C@@H](N)C(=O)O; d(aThr) = C[C@@H](O)[C@@H](N)C(=O)O; Hexanoyl(5-Me) = CC(C)CCCC(=O)*; Orn = NCCC[C@H](N)C(=O)O; Dhb = C/C=C(\N)C(=O)O

Experiments:
Assay type in all cases: cell-based, human
HeLa-APL = assay: SRB colorimetric assay of cell growth and viability, HeLa-APL; details: 48 hours exposure; for CC50: read-out: LC50 HELA-APL
PANC-1 = assay: SRB colorimetric assay of cell growth and viability, PANC-1; details: 48 hours exposure; for CC50: read-out: LC50 PANC-1
IGROV-1 = assay: SRB colorimetric assay of cell growth and viability, IGROV-1; details: 48 hours exposure
SK-MEL-28 = assay: SRB colorimetric assay of cell growth and viability, SK-MEL-28; details: 48 hours exposure; for CC50: read-out: LC50 MEL-28
IGROV-ET = assay: SRB colorimetric assay of cell growth and viability, IGROV-ET; details: 48 hours exposure; for CC50: read-out: LC50 IGROV-ET
LNCaP = assay: SRB colorimetric assay of cell growth and viability, LNCaP; details: 48 hours exposure; for CC50: read-out: LC50 LN-caP
HeLa = assay: SRB colorimetric assay of cell growth and viability, HeLa; details: 48 hours exposure; for CC50: read-out: LC50 HELA
SK-BR-3 = assay: SRB colorimetric assay of cell growth and viability, SK-BR-3; details: 48 hours exposure
HT-29 = assay: SRB colorimetric assay of cell growth and viability, HT-29; details: 48 hours exposure; for GI50: read-out: GI50 HT-29; for CC50: read-out: LC50 HT-29
DU-145 = assay: SRB colorimetric assay of cell growth and viability, DU-145; details: 48 hours exposure
LoVo = assay: SRB colorimetric assay of cell growth and viability, LoVo; details: 48 hours exposure; for CC50: read-out: LC50 LOVO
LoVo-Dox = assay: SRB colorimetric assay of cell growth and viability, LoVo-Dox; details: 48 hours exposure; for CC50: read-out: LC50 LOVO-DOX
Procedure, shortened: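 First, 5×10^3 cells per well attach for 18 hours in RPMI 1640 with 10% FBS at 37° C and 5% CO2. Next, samples spanning 10 to 10^−8 μg/mL are added for 48 hours. Finally, cells are fixed with TCA, stained with SRB for 10 minutes and read at 490 nm.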

K-562 = assay: SRB colorimetric assay of cell growth and viability, K-562; details: 48 hours exposure; for CC50: read-out: LC50 K-562
A-549 = assay: SRB colorimetric assay of cell growth and viability, A-549; details: 48 hours exposure; for GI50: read-out: GI50 A-549; for CC50: read-out: LC50 A-549

C/C=C1\NC(=O)[C@H](Cc2ccccc2)NC(=O)[C@@H](C(C)C)NC(=O)[C@@H]([C@@H](C)CC)NC(=O)[C@H](NC(=O)[C@H](NC(=O)[C@H](CCCN)NC(=O)[C@H]2CCCN2C(=O)[C@H](NC(=O)[C@@H](NC(=O)[C@@H](NC(=O)[C@@H](CC2CCCCC2)NC(=O)CCCC(C)C)[C@@H](C)O)C(C)C)C(C)C)[C@@H](C)CC)[C@@H](C)OC(=O)[C@H](C(C)C)NC1=O [Compound 8, [D-Cha^13]-KF]
GI50 (HeLa-APL): 1700 nM
TGI HELA-APL (HeLa-APL): 2.87E−06 Molar
CC50 (HeLa-APL): 4.86 µM
GI50 (PANC-1): 6.53 µM
TGI PANC-1 (PANC-1): 6.53E−06 Molar
CC50 (PANC-1): 6.53 µM
GI50 (IGROV-1): 1040 nM
LC50 (concentration causing 50% net cell killing) (IGROV-1): 4290 nM
TGI IGROV (IGROV-1): 2.11E−06 Molar
GI50 (SK-MEL-28): 1450 nM
TGI MEL-28 (SK-MEL-28): 2.42E−06 Molar
CC50 (SK-MEL-28): 4.02 µM
GI50 (IGROV-ET): 652 nM
TGI IGROV-ET (IGROV-ET): 1.44E−06 Molar
CC50 (IGROV-ET): 3160 nM
TGI LN-caP (LNCaP): 6.53E−06 Molar
GI50 (LNCaP; read-out: GI50 LN-caP): 2790 nM
CC50 (LNCaP): 6.53 µM
GI50 (HeLa): 1400 nM
TGI HELA (HeLa): 2.30E−06 Molar
CC50 (HeLa): 3.8 µM
GI50 (SK-BR-3): 484 nM
LC50 (SK-BR-3): 3170 nM
TGI SK-BR-3 (SK-BR-3): 1.25E−06 Molar
TGI HT-29 (HT-29): 1.99E−06 Molar
GI50 (HT-29): 992 nM
CC50 (HT-29): 3.99 µM
GI50 (DU-145): 1330 nM
LC50 (concentration causing 50% net cell kill) (DU-145): 4260 nM
TGI DU-145 (DU-145): 2.38E−06 Molar
GI50 (LoVo): 1010 nM
TGI LOVO (LoVo): 1.96E−06 Molar
CC50 (LoVo): 3820 nM
GI50 (LoVo-Dox): 986 nM
TGI LOVO-DOX (LoVo-Dox): 2.09E−06 Molar
CC50 (LoVo-Dox): 4430 nM
GI50 (K-562): 1930 nM
TGI K-562 (K-562): 4.92E−06 Molar
CC50 (K-562): 6.53 µM
TGI A-549 (A-549): 4.18E−06 Molar
GI50 (A-549): 1970 nM
CC50 (A-549): 6.53 µM

C/C=C1\NC(=O)[C@H](Cc2c[nH]c3ccccc23)NC(=O)[C@@H](C(C)C)NC(=O)[C@@H]([C@@H](C)CC)NC(=O)[C@H](NC(=O)[C@H](NC(=O)[C@H](CCCN)NC(=O)[C@H]2CCCN2C(=O)[C@H](NC(=O)[C@@H](NC(=O)[C@@H](NC(=O)[C@H](NC(=O)CCCC(C)C)C(C)C)[C@@H](C)O)C(C)C)C(C)C)[C@@H](C)CC)[C@@H](C)OC(=O)[C@H](C(C)C)NC1=O [Compound 68, [Trp^3]-KF] ({Hexanoyl(5-Me)}-[dV]TV[dV][dP][Orn][d(aIle)][d(aThr)][d(aIle)][dV]W[Dhb]V; ester 8-C)
GI50 (HeLa-APL; SRB): 943 nM
TGI HELA-APL (HeLa-APL; SRB): 1.90E−06 Molar
CC50 (HeLa-APL; SRB): 3.82 µM
GI50 (PANC-1; SRB): 6.59 µM
TGI PANC-1 (PANC-1; SRB): 6.59E−06 Molar
CC50 (PANC-1; SRB): 6.59 µM
GI50 (IGROV-1; SRB): 87 nM
LC50 (concentration causing 50% net cell killing) (IGROV-1; SRB): 453 nM
TGI IGROV (IGROV-1; SRB): 1.98E−07 Molar
GI50 (SK-MEL-28; SRB): 1250 nM
TGI MEL-28 (SK-MEL-28; SRB): 2.17E−06 Molar
CC50 (SK-MEL-28; SRB): 3.77 µM
GI50 (IGROV-ET; SRB): 150 nM
TGI IGROV-ET (IGROV-ET; SRB): 2.73E−07 Molar
CC50 (IGROV-ET; SRB): 499 nM
TGI LN-caP (LNCaP; SRB): 2.36E−06 Molar
GI50 (LNCaP; SRB, read-out: GI50 LN-caP): 1050 nM
CC50 (LNCaP; SRB): 5.29 µM
GI50 (HeLa; SRB): 1030 nM
TGI HELA (HeLa; SRB): 2.05E−06 Molar
CC50 (HeLa; SRB): 4.04 µM
GI50 (SK-BR-3; SRB): 150 nM
LC50 (SK-BR-3; SRB): 655 nM
TGI SK-BR-3 (SK-BR-3; SRB): 3.13E−07 Molar
TGI HT-29 (HT-29; SRB): 1.40E−06 Molar
GI50 (HT-29; SRB): 512 nM
CC50 (HT-29; SRB): 3.66 µM
GI50 (DU-145; SRB): 470 nM
LC50 (concentration causing 50% net cell kill) (DU-145; SRB): 2850 nM
TGI DU-145 (DU-145; SRB): 1.21E−06 Molar
GI50 (LoVo; SRB): 337 nM
TGI LOVO (LoVo; SRB): 9.49E−07 Molar
CC50 (LoVo; SRB): 2620 nM
GI50 (LoVo-Dox; SRB): 281 nM
TGI LOVO-DOX (LoVo-Dox; SRB): 6.47E−07 Molar
CC50 (LoVo-Dox; SRB): 2530 nM
GI50 (K-562; SRB): 3700 nM
TGI K-562 (K-562; SRB): 6.59E−06 Molar
CC50 (K-562; SRB): 6.59 µM
TGI A-549 (A-549; SRB): 2.83E−06 Molar
GI50 (A-549; SRB): 1560 nM
CC50 (A-549; SRB): 5.12 µM

C/C=C1\NC(=O)[C@H](Cc2ccccc2Cl)NC(=O)[C@@H](C(C)C)NC(=O)[C@@H]([C@@H](C)CC)NC(=O)[C@H](NC(=O)[C@H](NC(=O)[C@H](CCCN)NC(=O)[C@H]2CCCN2C(=O)[C@H](NC(=O)[C@@H](NC(=O)[C@@H](NC(=O)[C@H](NC(=O)CCCC(C)C)C(C)C)[C@@H](C)O)C(C)C)C(C)C)[C@@H](C)CC)[C@@H](C)OC(=O)[C@H](C(C)C)NC1=O [Compound 81, [Phe(2-Cl)^3]-KF]
GI50 (HeLa-APL; HELA-APL): 342 nM
TGI HELA-APL (HeLa-APL; HELA-APL): 7.87E−07 Molar
CC50 (HeLa-APL; HELA-APL): 1.84 µM
GI50 (PANC-1; PANC-1): 1.4 µM
TGI PANC-1 (PANC-1; PANC-1): 1.84E−06 Molar
CC50 (PANC-1; PANC-1): 1.84 µM
GI50 (IGROV-1; IGROV): 86.7 nM
LC50 (concentration causing 50% net cell killing) (IGROV-1; IGROV): 596 nM
TGI IGROV (IGROV-1; IGROV): 2.09E−07 Molar
GI50 (SK-MEL-28; MEL-28): 362 nM
TGI MEL-28 (SK-MEL-28; MEL-28): 8.73E−07 Molar
CC50 (SK-MEL-28; MEL-28): 1.68 µM
GI50 (IGROV-ET; IGROV-ET): 100 nM
TGI IGROV-ET (IGROV-ET; IGROV-ET): 2.40E−07 Molar
CC50 (IGROV-ET; IGROV-ET): 639 nM
GI50 (LNCaP; LN-caP): 75.6 nM
TGI LN-caP (LNCaP; LN-caP): 3.87E−07 Molar
CC50 (LNCaP; LN-caP): 1.27 µM
GI50 (HeLa; HELA): 199 nM
TGI HELA (HeLa; HELA): 6.33E−07 Molar
CC50 (HeLa; HELA): 1.44 µM
GI50 (SK-BR-3; SK-BR-3): 61.2 nM
LC50 (SK-BR-3; SK-BR-3): 664 nM
TGI SK-BR-3 (SK-BR-3; SK-BR-3): 1.18E−07 Molar
TGI HT-29 (HT-29; HT-29): 2.23E−07 Molar
GI50 (HT-29; HT-29): 102 nM
CC50 (HT-29; HT-29): 0.543 µM
GI50 (DU-145; DU-145): 242 nM
LC50 (concentration causing 50% net cell kill) (DU-145; DU-145): 1210 nM
TGI DU-145 (DU-145; DU-145): 6.83E−07 Molar
GI50 (LoVo; LOVO): 89.2 nM
TGI LOVO (LoVo; LOVO): 1.72E−07 Molar
CC50 (LoVo; LOVO): 445 nM
GI50 (LoVo-Dox; LOVO-DOX): 70.1 nM
TGI LOVO-DOX (LoVo-Dox; LOVO-DOX): 1.20E−07 Molar
CC50 (LoVo-Dox; LOVO-DOX): 369 nM
GI50 (K-562; K-562): 1840 nM
TGI K-562 (K-562; K-562): 1.84E−06 Molar
CC50 (K-562; K-562): 1.84 µM
TGI A-549 (A-549; A-549): 9.04E−07 Molar
GI50 (A-549; A-549): 457 nM
CC50 (A-549; A-549): 1.57 µM
